Consider 18 molecules from US12552824B2, “C-mannoside compounds useful for the treatment of urinary tract infections” (GLAXOSMITHKLINE INTELLECTUAL PROPERTY DEVELOPMENT LIMITED, priority 2018, dated 2026).

The structures appear in SMILES notation. Bounds are passed on as bounds.

The target of series [1] is T1, FimH (Escherichia coli, UniProt Q1R2J4).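 Further: concentration in nM.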
T1 construct: endogenous in cells; host or cells: E. coli UTI89 whole bacteria, agglutinating guinea pig red blood cells
Format: cell-based. The note with it: concentration reducing bacterial agglutination of guinea pig red blood cells by greater than 90%; UTI89 bacteria. How it is done:
Hemagglutination Inhibition Assay (HAI)
The hemagglutination inhibition (HAI) assay was performed with UTI89 bacteria and guinea pig red blood cells, as previously described (S. J. Hultgren, W. R. Schwan, A. J. Schaeffer, J. L. Duncan Infect. Immun. 1986, 54, 613-620 and Jarvis, C.; Han, Z.; Kalas, V.; Klein, R.; Pinkner, J. S.; Ford, B.; Binkley, J.; Cusumano, C. K.; Cusumano, Z.; Mydock-McGrane, L.; Hultgren, S. J.; Janetka, J. W., ChemMedChem 2016, 11, 367-373).

Series [2] can be described thus: Rat pharmacokinetics: IV infusion 1 mg/kg, then PO 5 mg/kg; blood and urine by LC-MS/MS. The note with it: for % F / bioavailability: oral bioavailability, ratio of dose-normalised AUC PO (5 mg/kg) and IV infusion (1 mg/kg); for Ue % po: percentage of oral dose (5 mg/kg) eliminated unchanged in urine; for bioavailability: male, Wistar Han; for bioavailability / AUC: whole blood; for AUC: area under blood concentration-time profile, PO 5 mg/kg, male Wistar Han rats, n = 3. The format is in vivo, Male Wistar Han rats. The text has this:
General Assays for Obtaining AUC Oral h*μm, % F, and Ue % PO Values
Male Wistar Han rats were purchased from Vital River Laboratory Animal Technology Co. Ltd (Beijing, China). The animals were approx. 6-8 weeks old with body weights of 200-300 g on the dosing date. The animals were housed in a 12-hour light/12-hour dark cycle environment and had free access to food and water. All animals were fed prior to dosing. Studies were approved by the Pharmaron Institutional Animal Care and Use Committee (IACUC).
Test article was administered as an intravenous infusion for 1 hour (1 mg/kg) at 5 mL/kg/h. After 48 h, animals received a single oral dose (5 mg/kg, free form) at a dose volume of 10 mL/kg, respectively. Blood samples were collected at various time points after IV infusion and PO administrations. Urine samples were collected at various time points after IV infusion and PO administrations.
Test article was dissolved in DMSO with vortexing and sonification to obtain a stock solution. An aliquot of the stock solution was mixed with 10% HP-β-CD in saline with vortexing to obtain a solution with concentration at 0.2 mg/mL of test article.
Test article was added into 1% Methyl Cellulose with vortexing and sonication to obtain a homogeneous suspension with concentration at 0.5 mg/mL of test article.
For IV infusion (1 mg/kg) administration, blood samples were collected from each animal at 0, 0.25, 0.5, 0.75, 1, 1.08, 1.25, 1.5, 1.75, 2, 3, 5, 8, 12, 24 hour post-dose.
For PO (5 mg/kg) administration, blood samples were collected from each animal at 0, 0.25, 0.5, 1, 1.5, 2, 3, 4, 6, 8, 12, 24 hour post-dose.
Blood samples (50 μL) were collected from each animal via jugular vein. These blood samples were placed into tubes containing K2EDTA. Whole blood was mixed with same volume of water and inverted several times. The blood samples were stored at −75±15° C. until analysis.
For IV infusion (1 mg/kg) administration, urine samples were collected from each animal at 0-4, 4-8, 8-12, 12-24 hour post-dose.
For PO (5 mg/kg) administration, urine samples were collected from each animal at 0-4, 4-8, 8-12, 12-24 hour post-dose.
Urine samples were collected continuously into containers maintained over dry ice at the intervals outlined below and stored at −80° C. prior to analysis.
55 μL of standards, 55 μL of QC samples or 55 μL of unknown samples (50 μL of blood or urine with 5 μL 50% acetonitrile) were mixed to 200 μL of acetonitrile containing IS (dexamethasone) to precipitate proteins. Then the samples were vortexed for 30 sec. After centrifugation at 4° C., 4700 rpm for 30 min, and 5 μL of the supernatant was injected into the LC-MS/MS system for quantitative analysis.
Test article blood and urine concentrations for each animal following IV infusion at 1 mg/kg and PO at 5 mg/kg were used to calculate pharmacokinetic parameters by employing a non-compartmental analysis (Phoenix™ WinNonlin® 7.0). The linear trapezoidal algorithm was used for AUC calculation.

`Cc1cc(-c2ccc(Cl)c(Cl)c2)ccc1[C@@H](O)[C@H]1O[C@H](CO)[C@@H](O)[C@H](O)[C@@H]1O` [Example 15]: the “HAI titer EC > 90” value in series [1] is recorded as ““++++” (<50 “++++”)”. In series [2], the “% F” value is ““++” (10 <= x <= 30%)” and the Ue % po result is ““++” (0.5 <= x <= 5%)”.

As for `Cc1cc(F)c(-c2ccc([C@@H](O)[C@H]3O[C@H](CO)[C@@H](O)[C@H](O)[C@@H]3O)c(C)c2)cc1Cl` [Example 11], the “HAI titer EC > 90” value in series [1] is listed as ““+++” (50-200 “+++”)”. In series [2], the “% F” value was ““+++” (>30%)” and the Ue % po entry is ““++” (0.5 <= x <= 5%)”.

With `Cc1cc(-c2cc(C(F)(F)F)cc(C(F)(F)F)c2)ccc1[C@@H](O)[C@H]1O[C@H](CO)[C@@H](O)[C@H](O)[C@@H]1O` [Example 74], the “HAI titer EC > 90” value in series [1] is on record as ““++++” (<50 “++++”)”. In addition, in series [2], the “% F” value was ““++” (10 <= x <= 30%)” and the Ue % po entry was ““+” (<0.5%)”.

For the molecule `Cc1cc(-c2cc(Cl)cc(Cl)c2)ccc1[C@@H](O)[C@H]1O[C@H](CO)[C@@H](O)[C@H](O)[C@@H]1O` [Example 16], the “HAI titer EC > 90” value in series [1] was ““++++” (<50 “++++”)”. In series [2], the “% F” value was ““++” (10 <= x <= 30%)” and the Ue % po entry is ““++” (0.5 <= x <= 5%)”.

As for `OC[C@H]1O[C@H]([C@H](O)c2ccc(-c3cc(F)cc(F)c3)cc2C(F)(F)F)[C@@H](O)[C@@H](O)[C@@H]1O` [Example 8, (2R,3S,4S,5S,6R)-2-((R)-(3′,5′-Difluoro-3-(trifluoromethyl)-[1,1′-biphenyl]-4-yl)(hydroxy)methyl)-6-(hydroxymethyl)tetrahydro-2H-pyran-3,4,5-triol], in series [1], the “HAI titer EC > 90” value is ““++++” (<50 “++++”)”. Besides, in series [2], the bioavailability was greater than 30%, the Ue % po entry is reported as ““++” (0.5 <= x <= 5%)” and the area under the curve (AUC) was less than 0.5 µM·h.

Take `Cc1cc(-c2cc(F)cc(F)c2)ccc1[C@@H](O)[C@H]1O[C@H](CO)[C@@H](O)[C@H](O)[C@@H]1O` [Example 9, (2R,3S,4S,5S,6R)-2-((R)-(3′,5′-Difluoro-3-methyl-[1,1′-biphenyl]-4-yl)(hydroxy)methyl)-6-(hydroxymethyl)tetrahydro-2H-pyran-3,4,5-triol]: the “HAI titer EC > 90” value in series [1] is given as ““++++” (<50 “++++”)”. Besides, in series [2], the bioavailability is greater than 30%, the Ue % po entry is reported as ““+++” (>5%)” and the AUC was in the range of 0.5 to 1 µM·h.

On to `Cc1cc(-c2ccc(C(F)(F)F)c(F)c2)ccc1[C@@H](O)[C@H]1O[C@H](CO)[C@@H](O)[C@H](O)[C@@H]1O` [Example 5, (2R,3S,4S,5S,6R)-2-((R)-(3′-Fluoro-3-methyl-4′-(trifluoromethyl)-[1,1′-biphenyl]-4-yl)(hydroxy)methyl)-6-(hydroxymethyl)tetrahydro-2H-pyran-3,4,5-triol], for which, in series [1], the “HAI titer EC > 90” value is given as ““++++” (<50 “++++”)”. For the same molecule, in series [2], the bioavailability lay within 10 to 30%, the Ue % po result is reported as ““++” (0.5 <= x <= 5%)” and the AUC lay in the range of 0.5 to 1 µM·h.

Regarding `Cc1cc(-c2cc(F)c(F)c(Cl)c2)ccc1[C@@H](O)[C@H]1O[C@H](CO)[C@@H](O)[C@H](O)[C@@H]1O` [Example 73], in series [1], the “HAI titer EC > 90” value is recorded as ““++++” (<50 “++++”)”. Moreover, in series [2], the “% F” value was ““++” (10 <= x <= 30%)” and the Ue % po result was ““++” (0.5 <= x <= 5%)”.

Consider `COc1cc(-c2ccc([C@@H](O)[C@H]3O[C@H](CO)[C@@H](O)[C@H](O)[C@@H]3O)c(C)c2)cc(C(F)(F)F)c1` [Example 61], for which, in series [1], the “HAI titer EC > 90” value is reported as ““++++” (<50 “++++”)”. Also, in series [2], the “% F” value is ““++” (10 <= x <= 30%)” and the Ue % po entry is ““+” (<0.5%)”.

For the molecule `CCc1c(F)cc(-c2ccc([C@@H](O)[C@H]3O[C@H](CO)[C@@H](O)[C@H](O)[C@@H]3O)c(C)c2)cc1F` [Example 94], in series [1], the “HAI titer EC > 90” value is recorded as ““++++” (<50 “++++”)”. Besides, in series [2], the “% F” value is listed as ““++” (10 <= x <= 30%)” and the Ue % po entry is recorded as ““+” (<0.5%)”.

Consider `C=Cc1c(F)cc(-c2ccc([C@@H](O)[C@H]3O[C@H](CO)[C@@H](O)[C@H](O)[C@@H]3O)c(C)c2)cc1F` [Example 4, (2R,3S,4S,5S,6R)-2-((R)-(3′,5′-Difluoro-3-methyl-4′-vinyl-[1,1′-biphenyl]-4-yl)(hydroxy)methyl)-6-(hydroxymethyl)tetrahydro-2H-pyran-3,4,5-triol], for which the “HAI titer EC > 90” value in series [1] is listed as ““++++” (<50 “++++”)”. In series [2], the bioavailability fell in the range of 10 to 30%, the Ue % po result is recorded as ““++” (0.5 <= x <= 5%)” and the AUC is less than 0.5 µM·h.

With `Cc1cc(-c2cc(F)c(OC(F)(F)F)c(F)c2)ccc1[C@@H](O)[C@H]1O[C@H](CO)[C@@H](O)[C@H](O)[C@@H]1O` [Example 101], the “HAI titer EC > 90” value in series [1] is recorded as ““++++” (<50 “++++”)”. Besides, in series [2], the “% F” value is ““++” (10 <= x <= 30%)” and the Ue % po result is listed as ““+” (<0.5%)”.

Regarding `Cc1cc(-c2cc(F)c(C)c(F)c2)ccc1[C@@H](O)[C@H]1O[C@H](CO)[C@@H](O)[C@H](O)[C@@H]1O` [Example 1, (2R,3S,4S,5S,6R)-2-((R)-(3′,5′-Difluoro-3,4′-dimethyl-[1,1′-biphenyl]-4-yl)(hydroxy)methyl)-6-(hydroxymethyl)tetrahydro-2H-pyran-3,4,5-triol], the “HAI titer EC > 90” value in series [1] is recorded as ““++++” (<50 “++++”)”. Besides, in series [2], the bioavailability was 10 to 30%, the Ue % po entry is reported as ““++” (0.5 <= x <= 5%)” and the AUC is less than 0.5 µM·h.

As for `Cc1cc(-c2cc(F)c(F)c(F)c2)ccc1[C@@H](O)[C@H]1O[C@H](CO)[C@@H](O)[C@H](O)[C@@H]1O` [Example 7, (2R,3S,4S,5S,6R)-2-((R)-Hydroxy(3′,4′,5′-trifluoro-3-methyl-[1,1′-biphenyl]-4-yl)methyl)-6-(hydroxymethyl)tetrahydro-2H-pyran-3,4,5-triol], in series [1], the “HAI titer EC > 90” value was ““++++” (<50 “++++”)”. In series [2], the bioavailability is greater than 30%, the Ue % po entry was ““+++” (>5%)” and the AUC is greater than 1 µM·h.

For the molecule `COc1cc(F)cc(-c2ccc([C@@H](O)[C@H]3O[C@H](CO)[C@@H](O)[C@H](O)[C@@H]3O)c(C)c2)c1` [Example 24], in series [1], the “HAI titer EC > 90” value is recorded as ““++++” (<50 “++++”)”. Also, in series [2], the “% F” value is given as ““++” (10 <= x <= 30%)” and the Ue % po entry was ““++” (0.5 <= x <= 5%)”.

In the case of `Cc1cc(-c2cc(F)c(C(F)(F)F)c(F)c2)ccc1[C@@H](O)[C@H]1O[C@H](CO)[C@@H](O)[C@H](O)[C@@H]1O` [Example 64], the “HAI titer EC > 90” value in series [1] is ““++++” (<50 “++++”)”. In series [2], the “% F” value is recorded as ““++” (10 <= x <= 30%)” and the Ue % po entry is on record as ““++” (0.5 <= x <= 5%)”.

In the case of `Cc1cc(-c2cc(F)c(Br)c(F)c2)ccc1[C@@H](O)[C@H]1O[C@H](CO)[C@@H](O)[C@H](O)[C@@H]1O` [Example 3, (2R,3S,4S,5S,6R)-2-((R)-(4′-Bromo-3′,5′-difluoro-3-methyl-[1,1′-biphenyl]-4-yl)(hydroxy)methyl)-6-(hydroxymethyl)tetrahydro-2H-pyran-3,4,5-triol], the “HAI titer EC > 90” value in series [1] was ““++++” (<50 “++++”)”. In series [2], the bioavailability was 10 to 30%, the Ue % po result is reported as ““++” (0.5 <= x <= 5%)” and the AUC is greater than 1 µM·h.

As to `Cc1cc(-c2cc(F)c(OC(C)C)c(F)c2)ccc1[C@@H](O)[C@H]1O[C@H](CO)[C@@H](O)[C@H](O)[C@@H]1O` [Example 93], in series [1], the “HAI titer EC > 90” value is ““++++” (<50 “++++”)”. Besides, in series [2], the “% F” value is given as ““++” (10 <= x <= 30%)” and the Ue % po entry is given as ““+” (<0.5%)”.

In general, bioavailability refers to dose-corrected exposure relative to a reference, in per cent. One may read the AUC as concentration integrated over time.
